# Data reported in ChEMBL document CHEMBL1132649, “Molecular modeling and synthesis of inhibitors of herpes simplex virus type 1 uracil-DNA glycosylase” (J Med Chem, 1999).
# Test system: Uracil-DNA glycosylase (Herpes simplex virus type 1)
# Experiment: Inhibitory potency against HSV-1 UDG( Herpes Simplex virus type-I Uracil DNA glycosylase); 10-15% inhibition was observed at a concentration of 40 uM
# Settings: Human alphaherpesvirus 1
row,inhibition,Structure (SMILES)
1,15%,CCCCCCc1ccc(Nc2cc(=O)[nH]c(=O)n2CC)cc1
2,15%,CCCCCCc1ccc(Nc2cc(=O)[nH]c(=O)n2C)cc1
3,15%,CCCCCCc1ccc(Nc2cc(=O)[nH]c(=O)n2CCC)cc1
